Measurements published in patent US11524966B1 (Valo Early Discovery, Inc., priority 2017, dated 2022).

Each molecule was assayed against T1, USP25 (USP25-His6, Boston Biochem E-546) (Homo sapiens, UniProt Q9UHP3) (assay: Ubiquitin-Rhodamine 110 Assay for USP25 Activity, Example A-2). Settings: Ubiquitin-Rhodamine 110 assay, Example A-2; read-out: USP25 A-2 IC50 range.
T1 construct: His6; purchased Boston Biochem E-546
T1 sequence (Q9UHP3 1-1055): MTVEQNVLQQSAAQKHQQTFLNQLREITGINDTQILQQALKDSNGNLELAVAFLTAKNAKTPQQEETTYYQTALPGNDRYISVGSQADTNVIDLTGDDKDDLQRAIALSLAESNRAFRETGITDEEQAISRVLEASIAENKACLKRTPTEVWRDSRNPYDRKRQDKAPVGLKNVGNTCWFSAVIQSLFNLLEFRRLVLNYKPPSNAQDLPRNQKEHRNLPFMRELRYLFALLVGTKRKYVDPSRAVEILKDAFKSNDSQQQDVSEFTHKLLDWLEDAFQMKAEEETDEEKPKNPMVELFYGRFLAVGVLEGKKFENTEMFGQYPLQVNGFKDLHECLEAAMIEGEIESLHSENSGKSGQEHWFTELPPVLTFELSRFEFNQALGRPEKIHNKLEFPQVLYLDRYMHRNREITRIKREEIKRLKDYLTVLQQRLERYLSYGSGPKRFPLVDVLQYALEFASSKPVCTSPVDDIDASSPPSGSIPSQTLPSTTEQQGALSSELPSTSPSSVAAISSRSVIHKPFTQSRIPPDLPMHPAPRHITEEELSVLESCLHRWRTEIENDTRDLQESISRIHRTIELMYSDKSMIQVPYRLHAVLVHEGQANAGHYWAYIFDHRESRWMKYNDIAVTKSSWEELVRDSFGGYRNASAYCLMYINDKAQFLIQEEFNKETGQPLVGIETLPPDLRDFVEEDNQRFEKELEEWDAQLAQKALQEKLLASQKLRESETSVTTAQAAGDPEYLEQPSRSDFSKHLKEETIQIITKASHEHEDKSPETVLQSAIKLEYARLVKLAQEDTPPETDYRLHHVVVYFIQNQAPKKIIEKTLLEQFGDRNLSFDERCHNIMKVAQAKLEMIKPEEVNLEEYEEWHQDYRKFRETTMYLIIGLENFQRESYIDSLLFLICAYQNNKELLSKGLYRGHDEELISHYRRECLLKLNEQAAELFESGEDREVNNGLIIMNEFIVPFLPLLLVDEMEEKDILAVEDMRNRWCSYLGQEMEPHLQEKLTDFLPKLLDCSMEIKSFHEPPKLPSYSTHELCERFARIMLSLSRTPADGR
Assay type: biochemical
Outline: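 USP25-His6 (75 pM) was preincubated with compound (10-point, 3-fold series, 25 μM to 1.3 nM) for 30 min in 20 mM Tris-HCl pH 8.0, 3 mM BME, 0.03% BGG, 0.01% Triton X-100. Ub-Rh110 (25 nM, <<Km) was then added for 45 min at room temperature, citric acid-stopped, and fluorescence read at 485/535 nm.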

Q: How did the IC50 turn out when `Cc1ccc2c(N)c(C(=O)N[C@H]3COc4cc(N5CC[C@H]6CNCC[C@H]65)ccc4C3)sc2n1` [Example 235, N-[(3R)-7-[(3aS,7aR)-octahydro-1H-pyrrolo[3,2-c]pyridin-1-yl]-3,4-dihydro-2H-1-benzopyran-3-yl]-3-amino-6-methylthieno[2,3-b]pyridine-2-carboxamide] was run?
A: Its IC50 is 50 to 200 nM.

Q: `Cc1ccc2c(N)c(C(=O)N[C@H]3COc4cc(N5CC[C@@H]6CNCC[C@@H]65)ccc4C3)sc2n1` [Example 236, N-[(3R)-7-[(3aR,7aS)-octahydro-1H-pyrrolo[3,2-c]pyridin-1-yl]-3,4-dihydro-2H-1-benzopyran-3-yl]-3-amino-6-methylthieno[2,3-b]pyridine-2-carboxamide] was tested. Which IC50 did it give?
A: The IC50 was 50 to 200 nM.

Q: With `Cc1ccc2c(N)c(C(=O)N[C@H]3COc4cc(N5C[C@@H]6NCCC(F)(F)[C@@H]6C5)ccc4C3)sc2n1` [Example 237, N-[(3R)-7-[(4aR,7aR)-4,4-difluoro-octahydro-1H-pyrrolo[3,4-b]pyridin-6-yl]-3,4-dihydro-2H-1-benzopyran-3-yl]-3-amino-6-methylthieno[2,3-b]pyridine-2-carboxamide] as the molecule, how does the IC50 read?
A: Its IC50 is 200 to 2000 nM.

Q: Which IC50 does the source give for `Cc1ccc2c(N)c(C(=O)N[C@H]3COc4cc(N5C[C@H]6NCCC(F)(F)[C@H]6C5)ccc4C3)sc2n1` [Example 238, N-[(3R)-7-[(4aS,7aS)-4,4-difluoro-octahydro-1H-pyrrolo[3,4-b]pyridin-6-yl]-3,4-dihydro-2H-1-benzopyran-3-yl]-3-amino-6-methylthieno[2,3-b]pyridine-2-carboxamide] here?
A: The IC50 was 200 to 2000 nM.

Q: For `CO[C@H]1CN(c2ccc3c(n2)CC[C@H](NC(=O)c2sc4nc(C)ccc4c2N)C3)C[C@]1(C)N` [Example 239, 3-amino-N-[(6S)-2-[(3S,4S)-3-amino-4-methoxy-3-methylpyrrolidin-1-yl]-5,6,7,8-tetrahydroquinolin-6-yl]-6-methylthieno[2,3-b]pyridine-2-carboxamide], which IC50 is on record?
A: The IC50 was > 2000 nM.

Q: Which IC50 does the source give for `CO[C@@H]1CN(c2ccc3c(n2)CC[C@H](NC(=O)c2sc4nc(C)ccc4c2N)C3)C[C@@]1(C)N` [Example 240, 3-amino-N-[(6S)-2-[(3R,4R)-3-amino-4-methoxy-3-methylpyrrolidin-1-yl]-5,6,7,8-tetrahydroquinolin-6-yl]-6-methylthieno[2,3-b]pyridine-2-carboxamide] here?
A: Its IC50 is > 2000 nM.

Q: `Cc1cc(C)c2c(N)c(C(=O)N[C@H]3COc4cc(N5CC6CCC(C5)N6)c(C#N)c(F)c4C3)sc2n1` [Example 241, 3-amino-N-[(3R)-6-cyano-7-{3,8-diazabicyclo[3.2.1]octan-3-yl}-5-fluoro-3,4-dihydro-2H-1-benzopyran-3-yl]-4,6-dimethylthieno[2,3-b]pyridine-2-carboxamide] was tested. Which IC50 did it give?
A: Its IC50 is 1 to 50 nM.

Q: For `Cc1ccc2c(N)c(C(=O)N[C@H]3COc4cc(N5CCC[C@@H]6CNC[C@@H]65)ccc4C3)sc2n1` [Example 242, N-[(3R)-7-[(4aR,7aR)-octahydro-1H-pyrrolo[3,4-b]pyridin-1-yl]-3 ,4-dihydro-2H-1-benzopyran-3-yl]-3-amino-6-methylthieno[2,3-b]pyridine-2-carboxamide], which IC50 is on record?
A: The IC50 was 50 to 200 nM.

Q: For `Cc1ccc2c(N)c(C(=O)N[C@H]3COc4cc(N5CCC[C@H]6CNC[C@H]65)ccc4C3)sc2n1` [Example 243, N-[(3R)-7-[(4aS,7aS)-octahydro-1H-pyrrolo[3,4-b]pyridin-1-yl]-3,4-dihydro-2H-1-benzopyran-3-yl]-3-amino-6-methylthieno[2,3-b]pyridine-2-carboxamide], which IC50 is on record?
A: Its IC50 is 1 to 50 nM.

Q: Which IC50 does the source give for `Cc1ccc2c(N)c(C(=O)N[C@H]3COc4cc(N5C[C@H](N)CC[C@@H]5C(F)(F)F)ccc4C3)sc2n1` [Example 244, 3-amino-N-[(3R)-7-[(2R,5R)-5-amino-2-(trifluoromethyl)piperidin-1-yl]-3,4-dihydro-2H-1-benzopyran-3-yl]-6-methylthieno[2,3-b]pyridine-2-carboxamide] here?
A: The IC50 was 1 to 50 nM.

Q: How did the IC50 turn out when `Cc1ccc2c(N)c(C(=O)N[C@H]3COc4cc(N5C[C@@H](N)CC[C@H]5C(F)(F)F)ccc4C3)sc2n1` [Example 245, 3-amino-N-[(3R)-7-[(2S,5S)-5-amino-2-(trifluoromethyl)piperidin-1-yl]-3,4-dihydro-2H-1-benzopyran-3-yl]-6-methylthieno[2,3-b]pyridine-2-carboxamide] was run?
A: The IC50 was 50 to 200 nM.

Q: `Cc1ccc2c(N)c(C(=O)N[C@H]3COc4cc(N5C[C@@H](N)CC[C@@H]5C(F)(F)F)ccc4C3)sc2n1` [Example 246, 3-amino-N-[(3R)-7-[(2R,5S)-5-amino-2-(trifluoromethyl)piperidin-1-yl]-3,4-dihydro-2H-1-benzopyran-3-yl]-6-methylthieno[2,3-b]pyridine-2-carboxamide] was tested. Which IC50 did it give?
A: Its IC50 is 1 to 50 nM.

Q: With `Cc1ccc2c(N)c(C(=O)N[C@H]3COc4cc(N5C[C@H](N)CC[C@H]5C(F)(F)F)ccc4C3)sc2n1` [Example 247, 3-amino-N-[(3R)-7-[(2S,5R)-5-amino-2-(trifluoromethyl)piperidin-1-yl]-3,4-dihydro-2H-1-benzopyran-3-yl]-6-methylthieno[2,3-b]pyridine-2-carboxamide] as the molecule, how does the IC50 read?
A: The IC50 was 50 to 200 nM.

Q: Which IC50 does the source give for `Cc1ccc2c(N)c(C(=O)N[C@H]3COc4cc(N5CC6CCC[C@@]6(N)C5)ccc4C3)sc2n1` (stereo partly drawn) [Example 248, N-[(3R)-7-[(3aS)-3a-amino-octahydrocyclopenta[c]pyrrol-2-yl]-3,4-dihydro-2H-1-benzopyran-3-yl]-3-amino-6-methylthieno[2,3-b]pyridine-2-carboxamide] here?
A: The IC50 was 200 to 2000 nM.

Q: With `Cc1ccc2c(N)c(C(=O)N[C@H]3COc4cc(N5CC6CCC[C@]6(N)C5)ccc4C3)sc2n1` (stereo partly drawn) [Example 249, N-[(3R)-7-[(3aR)-3a-amino-octahydrocyclopenta[c]pyrrol-2-yl]-3,4-dihydro-2H-1-benzopyran-3-yl]-3-amino-6-methylthieno[2,3-b]pyridine-2-carboxamide] as the molecule, how does the IC50 read?
A: Its IC50 is 50 to 200 nM.

Q: With `COC[C@@H]1CN(c2cc(F)c3c(c2)OC[C@H](NC(=O)c2sc4nc(C)ccc4c2N)C3)C[C@@H]1N` [Example 250, 3-amino-N-[(3R)-7-[(3R,4R)-3-amino-4-(methoxymethyl)pyrrolidin-1-yl]-5-fluoro-3,4-dihydro-2H-1-benzopyran-3-yl]-6-methylthieno[2,3-b]pyridine-2-carboxamide] as the molecule, how does the IC50 read?
A: The IC50 was 200 to 2000 nM.

Q: `COC[C@H]1CN(c2cc(F)c3c(c2)OC[C@H](NC(=O)c2sc4nc(C)ccc4c2N)C3)C[C@H]1N` [Example 251, 3-amino-N-[(3R)-7-[(3S,4S)-3-amino-4-(methoxymethyl)pyrrolidin-1-yl]-5-fluoro-3,4-dihydro-2H-1-benzopyran-3-yl]-6-methylthieno[2,3-b]pyridine-2-carboxamide] was tested. Which IC50 did it give?
A: The IC50 was 50 to 200 nM.

Q: Which IC50 does the source give for `COC[C@@H]1CN(c2ccc3c(c2)CC[C@H](NC(=O)c2sc4nc(C)ccc4c2N)C3)C[C@@H]1N` [Example 252, 3-amino-N-[(2S)-6-[(3R,4R)-3-amino-4-(methoxymethyl)pyrrolidin-1-yl]-1,2,3,4-tetrahydronaphthalen-2-yl]-6-methylthieno[2,3-b]pyridine-2-carboxamide] here?
A: Its IC50 is 200 to 2000 nM.

Q: With `COC[C@H]1CN(c2ccc3c(c2)CC[C@H](NC(=O)c2sc4nc(C)ccc4c2N)C3)C[C@H]1N` [Example 253, 3-amino-N-[(2S)-6-[(3S,4S)-3-amino-4-(methoxymethyl)pyrrolidin-1-yl]-1,2,3,4-tetrahydronaphthalen-2-yl]-6-methylthieno[2,3-b]pyridine-2-carboxamide] as the molecule, how does the IC50 read?
A: Its IC50 is 200 to 2000 nM.
